Measured values reported in patent US20260176270A1 (Exelixis, Inc., priority 2022, published 2026).
pIC50: −log10 of the molar value. Where two headings read alike, the source gives them in different places.

How the values were obtained:
PKMYT1 = target: T1, PKMYT1 (Homo sapiens, UniProt Q99640); test: ADP-Glo PKMYT1 ATP-depletion assay; details: 50 nM PKMYT1, 13.3 nM CDK1, read-out: Biochemical IC50
T1 construct: PKMYT1 (93 kD, full length, N-terminal GST tag from Signal Chem); GST (N); purchased Signal Chem
T1 sequence (Q99640 1-499): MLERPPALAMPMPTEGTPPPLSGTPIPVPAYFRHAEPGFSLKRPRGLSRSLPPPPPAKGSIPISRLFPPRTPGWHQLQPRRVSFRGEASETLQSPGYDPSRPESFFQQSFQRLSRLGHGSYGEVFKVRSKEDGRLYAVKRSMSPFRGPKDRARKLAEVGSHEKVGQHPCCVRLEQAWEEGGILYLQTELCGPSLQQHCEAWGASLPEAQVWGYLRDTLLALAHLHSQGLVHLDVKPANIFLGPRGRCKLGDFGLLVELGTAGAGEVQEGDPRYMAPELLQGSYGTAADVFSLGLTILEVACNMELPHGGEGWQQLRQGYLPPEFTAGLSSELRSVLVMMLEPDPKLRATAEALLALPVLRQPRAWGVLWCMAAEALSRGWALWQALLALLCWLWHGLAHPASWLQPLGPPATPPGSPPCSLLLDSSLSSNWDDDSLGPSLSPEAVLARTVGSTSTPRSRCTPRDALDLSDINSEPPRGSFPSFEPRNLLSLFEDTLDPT
Method: (§1) Biochemical IC50 values were determined via ADP-Glo™ assay. Cellular IC50 values were determined via AlphaLISA assay.
ADP-Glo™ PKMYT1 ATP-depletion assay. The activity of PKMYT1 is measured using a luciferase-luciferin based ATP detection reaction to quantify ATP depletion resulting from kinase-catalyzed phosphoryl transfer to CDK1 or autophosphorylation of PKMYT1. The ADP generated as a byproduct of the reaction is converted to ATP and used to drive a luciferase reaction. Test compounds were dissolved in DMSO and dispensed into Corning 3824 384-well plates prior to the experiment such that the final DMSO concentration was <1%. To the compounds was added 3 μL of PKMYT1 (93 kD, full length, N-terminal GST tag from Signal Chem). The reaction was started by the addition of 2 μL of CDK1 (58 kDa, full length, N-terminal GST tag from Signal Chem) and ATP in assay buffer (50 mM Hepes, 40 mM NaCl, 10 mM MgCl2, 1 mM DTT, 0.1 mg/mL BSA, 2.5 mM MnCl2). Final assay concentrations were 50 nM PKMYT1, 13.3 nM CDK1, and 88 µM ATP. Plates were centrifuged for 1 minute at 1000 RPM and incubated at RT for 120 minutes. After the incubation period, ADP-Glo™ reagent was added and the plates were incubated for another 40 minutes before finally adding the kinase detection reagent. 30 minutes after the addition, plates were placed on a PHERAstar® plate reader and read using the Luminescence Protocol, integration time at 0.5 seconds.

[1] = test system: phosphorylation of CDK1 at Thr14 in HCC1806 cells; test: Cell lysate AlphaLISA assay measuring inhibition of phosphorylation of CDK1 Thr14; type: cell-based; details: read-out: Cellular IC50
Method: as §1
Cell lysate AlphaLISA® assay measuring inhibition of phosphorylation of CDK1 Thr14. Inhibition of phosphorylation of CDK1 at Thr14 was determined using AlphaLISA® SureFire® Ultra™ Kit from Perkin Elmer (ALSU-PCDK1-A10K). HCC1806 cells were seeded at 2K cells per well (50 μl/well) in 384-well plates (Corning 3570) and stored overnight at 37° C. and 5% CO2. The following day, the compounds dissolved in DMSO were introduced to the cells and incubated for 4 hours at 37° C. and 5% CO2. The cells were then washed with PBS using Blue®Washer and 10 μl of lysis buffer containing protease inhibitor was added. The plate was placed on an orbital shaker (at 4° C.) for 30 minutes and stored overnight at −80° C. for complete lysing. The next day, the plates were thawed at room temperature for at least 30 min. Reagents were prepared in a dimmed light setting (<100 lumens). The assay was run by first adding 5 μl of the acceptor mix (reaction buffer 1: reaction buffer 2: activation buffer: acceptor beads 47:47:4:2), covering the plate with foil, shaking for 2 minutes and incubating at RT for 60 minutes. The donor mix (dilution buffer: donor beads 47:3) was then added at 5 μl per well, placed on the shaker for 2 minutes and incubated at RT for 60 minutes before reading the plates on a PHERAstar® plate reader. The results were normalized to DMSO (0% Inhibition) and 3 μM of reference compound.

SMILES	pIC50 (PKMYT1)	pIC50 ([1]; 4 hours)	pIC50 ([1]; Homo sapiens, HCC1806, 4 h)
COc1cncc(-c2c(N)c(C(N)=O)nc3cccnc23)c1C (atropisomer, axis not shown) [Compound 185]	≤ 5.30	≤ 5.30	
COc1nc2cc(C(N)=O)c(N)c(-c3cccc(O)c3C)c2nc1C (atropisomer, axis not shown) [Compound 193]	≤ 5.30	≤ 5.30	
Cc1cnn(C)c1-c1c(N)c(C(N)=O)nc2cccnc12 [Compound 210]	≤ 5.30		≤ 5.30
NC(=O)c1nc2c(c(-c3cc(O)cnc3F)c1N)NCCC2 (atropisomer, axis not shown) [Compound 296]	≤ 5.30	≤ 5.30	
COc1cc(-c2c(N)c(C(N)=O)nc3cccnc23)cnc1C [Compound 238]	5.30 to 6.00		≤ 5.30
CCn1ccc2cc(C(N)=O)c(N)c(-c3cccc(O)c3C)c2c1=O (atropisomer, axis not shown) [Compound 328]	≤ 5.30	≤ 5.30	
Cc1c(-c2c(N)c(C(N)=O)nc3cccnc23)cnn1C [Compound 320]	≤ 5.30		5.30 to 6.00
Cc1nc(F)ccc1-c1c(N)c(C(N)=O)nc2cccnc12 [Compound 228]	≤ 5.30		≤ 5.30
Cc1cnc2cc(C(N)=O)c(N)c(-c3cccc(O)c3C)c2n1 (atropisomer, axis not shown) [Compound 169]	6.30 to 7.30	6.00 to 6.30	
Cc1ccc(O)c(C)c1-c1c(N)c(C(N)=O)cc2nc(C(F)(F)F)cnc12 [Compound 101, 7-Amino-8-(3-hydroxy-2,6-dimethylphenyl)-3-(trifluoromethyl)quinoxaline-6-carboxamide]	6.30 to 7.30		6.30 to 7.30

Continued, values first:

pIC50 (PKMYT1)	pIC50 ([1]; 4 hours)	pIC50 ([1]; Homo sapiens, HCC1806, 4 h)	SMILES
> 7.30		6.30 to 7.30	Cc1cnc2c(-c3c(C)ccc(O)c3C)c(N)c(C(N)=O)cc2c1 (atropisomer, axis not shown) [Compound 213]
> 7.30		6.30 to 7.30	Cc1ccc(O)c(C)c1-c1c(N)c(C(N)=O)nc2nccnc12 [Compound 126, 7-amino-8-(3-hydroxy-2,6-dimethylphenyl)pyrido[2,3-b]pyrazine-6-carboxamide]
6.30 to 7.30		5.30 to 6.00	Cc1cccc(-c2c(N)c(C(N)=O)cc3cc(Cl)cnc23)c1C (atropisomer, axis not shown) [Compound 180]
6.30 to 7.30		5.30 to 6.00	Cc1c(O)cccc1-c1c(N)c(C(N)=O)cc2ccncc12 [Compound 335]
6.30 to 7.30	5.30 to 6.00		Cc1ccc(O)c(C)c1-c1c(N)c(C(N)=O)nc2ccccc12 (atropisomer, axis not shown; (M)) [Compound 44, (M)-3-Amino-4-(3-hydroxy-2,6-dimethylphenyl)quinoline-2-carboxamide]
> 7.30	> 7.30		Cc1c(O)cccc1-c1c(N)c(C(N)=O)nc2cccc(C#N)c12 (atropisomer, axis not shown) [Compound 242]
6.30 to 7.30	5.30 to 6.00		Cc1c(O)cccc1-c1c(N)c(C(N)=O)cc2ncccc12 [Compound 67, 6-Amino-5-(3-hydroxy-2-methylphenyl)quinoline-7-carboxamide]
> 7.30	6.30 to 7.30		Cc1c(O)cccc1-c1c(N)c(C(N)=O)cc2cccnc12 (single isomer, unassigned) [Compound 62]
> 7.30	6.30 to 7.30		Cc1ccc(O)c(C)c1-c1c(N)c(C(N)=O)cc2nc(C(F)(F)F)cnc12 (single isomer, unassigned) [Compound 112, (P)-7-Amino-8-(3-hydroxy-2,6-dimethylphenyl)-3-(trifluoromethyl)quinoxaline-6-carboxamide]
6.30 to 7.30	6.30 to 7.30		Cc1c(O)cccc1-c1c(N)c(C(N)=O)cc2nc(C(F)(F)F)cnc12 (atropisomer, axis not shown; (P)) [Compound 100, (P)-7-Amino-8-(3-hydroxy-2-methylphenyl)-3-(trifluoromethyl)quinoxaline-6-carboxamide]
